Data set [1] deals with BaF3. Put plainly: PROTAC activity at CRBN/KIF5B-RET (unknown origin) expressed in mouse BaF3 cells assessed as induction of RET degradation at 10 nM incubated for 24 hrs by immunoblot analysis relative to control. It counts as cell-based. (Immunoblotting shows a protein as a band on a membrane.)
In data set [2] the test system is BaF3. Put plainly: Antiproliferative activity against mouse BaF3 cells stably expressing KIF5B-RET G810S mutant incubated for 72 hrs by CCK8 assay. Format: functional, cell-based. Particulars: BaF3, 72 h.
Data set [3] has as its system BaF3. Put plainly: Antiproliferative activity against mouse BaF3 cells stably expressing CCDC6-RET V804M mutant incubated for 72 hrs by CCK8 assay. Format: functional, cell-based. The settings on record: BaF3, 72 h.
In the next data set the test system is HeLa. Put plainly: Cytotoxicity against human HeLa cells. Format: functional, cell-based.
Another data set has as its system HL-60. Description: Cytotoxicity against human HL-60 cells. Format: functional, cell-based.
Data set [4] in a line: Cytotoxicity against human HEK293 cells. It counts as toxicity, cell-based.
For data set [5], the system named is BaF3. Put plainly: Cytotoxicity against mouse BaF3 cells. It counts as functional, cell-based.
The test system of data set [6] is BaF3. Description: PROTAC activity at CRBN/KIF5B-RET (unknown origin) expressed in mouse BaF3 cells assessed as induction of RET degradation at 1 to 100 nM incubated for 24 hrs by immunoblot analysis relative to control. Particulars: dose 1-100 nM. It counts as cell-based.
A short description of data set [7]: PROTAC activity at CRBN/KIF5B-RET G810C mutant (unknown origin) expressed in mouse BaF3 cells assessed as induction of RET G810C mutant degradation incubated for 24 hrs by immunoblot analysis. The settings on record: BaF3, 24 h. It counts as cell-based.
The test system of data set [8] is BaF3. Description: PROTAC activity at CRBN/KIF5B-RET G810C mutant (unknown origin) expressed in mouse BaF3 cells assessed as induction of RET G810C mutant degradation at 1 to 100 nM incubated for 24 hrs by immunoblot analysis relative to control. It counts as cell-based. The settings on record: dose 1-100 nM.
Data set [9] concerns BaF3. Put plainly: PROTAC activity at CRBN/KIF5B-RET (unknown origin) expressed in mouse BaF3 cells assessed as induction of RET degradation at 10 nM incubated for 24 hrs in presence of MLN4924 by immunoblot analysis. It counts as cell-based.
Data set [10] in a line: Induction of apoptosis in mouse BaF3 cells stably expressing KIF5B-RET G810C mutant assessed as viable cells at 10 nM incubated for 48 hrs by Annexin V-FITC/PI staining based flow cytometry (reference value: 92.21 %). It counts as functional. Particulars: read-out: Activity.
Data set [11] is described as follows: Induction of apoptosis in mouse BaF3 cells stably expressing KIF5B-RET G810C mutant assessed as necrotic cells at 10 nM incubated for 48 hrs by Annexin V-FITC/PI staining based flow cytometry (reference value: 0.94 %). Format: functional.
A short description of data set [12]: Induction of apoptosis in mouse BaF3 cells stably expressing KIF5B-RET G810C mutant assessed as late apoptotic cells at 20 nM incubated for 48 hrs by Annexin V-FITC/PI staining based flow cytometry (reference value: 5.99 %). Format: functional. Background: Flow cytometry measures light scatter and fluorescence of single cells or particles in a stream.
Data set [13] can be described thus: Induction of apoptosis in mouse BaF3 cells stably expressing KIF5B-RET G810C mutant assessed as apoptotic cells at 10 nM incubated for 48 hrs by Annexin V-FITC/PI staining based flow cytometry (reference value: 6.7 %). It counts as functional.
Data set [14] can be described thus: Induction of apoptosis in mouse BaF3 cells stably expressing KIF5B-RET G810C mutant assessed as apoptotic cells at 20 nM incubated for 48 hrs by Annexin V-FITC/PI staining based flow cytometry (reference value: 6.7 %). It counts as functional.
Data set [15] can be described thus: Half life in Sprague-Dawley rat at 1 mg/kg, iv measured for 24 hrs by LC-MS/MS analysis. It counts as ADME, organism-based. Particulars: in vivo.
A short description of data set [16]: Tmax in Sprague-Dawley rat at 1 mg/kg, iv measured for 24 hrs by LC-MS/MS analysis. Format: ADME, organism-based. Particulars: in vivo.
Data set [17] in a line: Cmax in Sprague-Dawley rat at 1 mg/kg, iv measured for 24 hrs by LC-MS/MS analysis. It counts as ADME, organism-based. The settings on record: in vivo.
Data set [18] in a line: AUC (0 to infinity) in Sprague-Dawley rat at 1 mg/kg, iv measured for 24 hrs by LC-MS/MS analysis. Format: ADME, organism-based. Particulars: in vivo.
For data set [19], the system named is BaF3. Put plainly: Antitumor activity against mouse BaF3 cells stably expressing KIF5B-RET G810C mutant implanted in BALB/c nu/nu mouse at 10 mg/kg, po qd treated for 10 days relative to control. Format: functional. Particulars: BaF3, 240 h, time 10 day, read-out: TGI.
For data set [20], the system named is BaF3. Put plainly: Antitumor activity against mouse BaF3 cells stably expressing KIF5B-RET G810C mutant implanted in BALB/c nu/nu mouse at 10 mg/kg, po bid treated for 10 days relative to control. Format: functional. The settings on record: BaF3, 240 h, time 10 day, read-out: TGI.
Data set [21] deals with Kinesin-1 heavy chain/ Tyrosine-protein kinase receptor RET (Homo sapiens), P07949+P33176 [G810C]. Description: In vivo PROTAC activity at CRBN/KIF5B-RET G810C mutant (unknown origin) expressed in mouse BaF3 cells implanted in BALB/c nu/nu mouse assessed as induction of RET G810C mutant degradation at 10 mg/kg, po bid treated for 10 days by Western blot analysis. Format: functional, organism-based. Particulars: time 10.0 day.

For data set [22] the test system is unchanged. Description: In vivo PROTAC activity at CRBN/KIF5B-RET G810C mutant (unknown origin) expressed in mouse BaF3 cells implanted in BALB/c nu/nu mouse assessed as induction of RET G810C mutant degradation at 10 mg/kg, po qd treated for 10 days by Western blot analysis. It counts as functional, organism-based. Particulars: time 10.0 day.

Structures are written as SMILES. The source made the active and inactive calls. The calls are words filed in the database; no cut-off is given here. Where only a bound is given, the exact number is not on record here.

One may read the IC50 as the point on the concentration scale where inhibition reaches its midpoint. A high value points to lower potency. As a reminder, the Emax is the greatest response seen or fitted, relative to the assay's reference. A word on the DC50: it is the concentration at which degradation of the target reaches its halfway point. The half-life is how long it takes for the measured level to halve. The low end stands for rapid decline, the high end for slow decline. Usually Tmax stands for the time at which the peak concentration occurs. Broadly, the Cmax is the peak of the concentration-time curve. Broadly, the AUC(0-inf) is total exposure, with the tail of the curve extrapolated. For `COc1ccc(CN2C3CC2CN(c2ccc(-c4cc(N5CCC(N6CCN(CCCC#Cc7cccc8c7CN(C7CCC(=O)NC7=O)C8=O)CC6)CC5)cn5ncc(C#N)c45)cn2)C3)cn1` (centres undefined), the Activity stood at 65% with BaF3 [1]; 1.45% in [11]; 17.41% in data set [12]; 34.1% in [13]; 55.4% in [14]. The IC50 with BaF3 [2] was 0.0226 µM; with BaF3 [3] it was 0.0045 µM; with HeLa, greater than 5 µM; in the data set with HL-60, greater than 5 µM; in [4], greater than 5 µM; with BaF3 [5], greater than 5 µM. Also, the Emax with BaF3 [6] worked out at 92%; in the data set on BaF3 [8] it was 91%. In data set [7], the DC50 was determined as 0.0117 µM. The result in the data set with BaF3 [9] was inactive. Also, the viability at 0.01 µM in [10] worked out at 64.3%. The half-life in data set [15] is 6.98 h. Moreover, in data set [16], the Tmax is 4.98 min. This compound also displayed a Cmax in [17] of 121 ng/mL. For the same compound, in data set [18], the AUC(0-inf) stood at 295 ng·h/mL. Besides, the inhibition in vivo at 10 mg/kg with BaF3 [19] was determined as 62.3%; with BaF3 [20], 85.1%. Further, the outcome in data set [21] and in data set [22] was Active.
